Experimental data published in patent US11000033B2, “Ketone or oxime compound, and herbicide” (NISSAN CHEMICAL CORPORATION, priority 2014, dated 2021).

Tests used:
Assay type in all cases: in vivo
[1] = system: Alopecurus myosuroides; test: Test Example 5: herbicidal effect by foliage application, plastic box (symbol J); conditions: 320 g/ha, 3 weeks after application
In short: (§1)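 Visual herbicidal score, taken three weeks post-application, of seedlings sprayed on the foliage with water-diluted emulsion at a predetermined amount; plants were 14 days old, greenhouse-raised at 25° C. to 30° C.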

[2] = system: Monochoria vaginalis; test: Test Example 2: herbicidal activity, application during weed generation in submerged conditions (symbol C); conditions: Table 23; application herbicide amount 320 g/ha; grade 0-5 by criteria of Test Example 1
In short: (§2)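 Alluvial soil in pots was flooded to a 4 cm water depth and sown with a mix of the three weed species, then grown in a greenhouse at 25° C. to 30° C. At the one- to two-leaf stage, an emulsifiable formulation diluted in water to a set dose was applied to the water surface. Effects were scored visually 3 weeks later.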

[3] = system: beet; test: Test Example 4: effect on crop by soil treatment (symbol f); conditions: application herbicide amount 320 g/ha
In short: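 The test used sterilized diluvial soil. Seed was set down in spots and overlaid with about 1.5 cm of soil before growth in a greenhouse kept at 25° C. to 30° C.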

[4] = system: rapeseed; test: Test Example 5: effect on crop by foliage application, plastic box (symbol g); conditions: 320 g/ha, 3 weeks after application
In short: (§3)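 Seeds were sown in spots in sterilized diluvial soil held in a plastic box 21 cm × 13 cm × 7 cm deep, covered with about 1.5 cm of soil, and grown in a greenhouse at 25° C. to 30° C.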

[5] = system: Setaria viridis; test: Test Example 4: herbicidal effect by soil treatment (symbol G); conditions: application herbicide amount 320 g/ha
In short: (§4)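 Seeds were sown in sterilized diluvial soil, covered with about 1.5 cm of soil, and the soil surface was sprayed with a water-diluted emulsion of the compound at a predetermined rate. Plants grew in a greenhouse at 25° C. to 30° C.; effects were scored visually 3 weeks after application.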

[6] = system: Digitaria ciliaris; test: Test Example 5: herbicidal effect by foliage application, plastic box (symbol F); conditions: 320 g/ha, 3 weeks after application
In short: as §1

[7] = system: Scirpus juncoides; test: Test Example 2: herbicidal activity, application during weed generation in submerged conditions (symbol B); conditions: Table 23; application herbicide amount 320 g/ha; grade 0-5 by criteria of Test Example 1
In short: as §2

[8] = system: Veronica persica; test: Test Example 4: herbicidal effect by soil treatment (symbol R); conditions: application herbicide amount 320 g/ha
In short: as §4

[9] = system: beet; test: Test Example 5: effect on crop by foliage application, plastic box (symbol f); conditions: 320 g/ha, 3 weeks after application
In short: as §3

[10] = system: Avena fatua; test: Test Example 5: herbicidal effect by foliage application, plastic box (symbol I); conditions: 320 g/ha, 3 weeks after application
In short: as §1

[11] = system: Echinochloa oryzacola Vasing.; test: Test Example 1: herbicidal activity, application before weed generation in submerged conditions (symbol A); conditions: application herbicide amount 320 g/ha
In short: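 Compound emulsion was diluted to a set herbicide amount and applied to the water surface on the sowing day, into submerged (4 cm) alluvial-soil pots sown with mixed weed seeds and transplanted 2.5-leaf rice. Pots were held in a 25–30 °C greenhouse, and weeds were scored 0–5 by herbicidal ratio after 3 weeks.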

[12] = system: Leptochloa chinensis; test: Test Example 3: herbicidal effect by foliage application, Wagner pot (symbol D); conditions: application herbicide amount 320 g/ha
In short: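 Weeds and rice were sown in alluvial soil under 0.1–0.5 cm of standing water and grown for 14 days in a 25–30 °C greenhouse. An emulsion of the compound, diluted in water to a set dose, was sprayed evenly onto the foliage. Effect was scored against fixed criteria 3 weeks after treatment.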

Row | SMILES | J: Alopecurus myosuroides, herbicidal effect grade [1] | Herbicidal effect grade, C: Monochoria vaginalis [2] | f (beet) effect on crop grade [3] | g: rapeseed, effect on crop grade [4] | G (Setaria viridis) herbicidal effect grade [5] | F: Digitaria ciliaris, herbicidal effect grade [6] | Herbicidal effect grade, B: Scirpus juncoides [7] | R (Veronica persica) herbicidal effect grade [8] | f: beet, effect on crop grade [9] | I: Avena fatua, herbicidal effect grade [10] | Herbicidal effect grade, A: Echinochloa oryzacola Vasing. [11] | herbicidal effect on D (Leptochloa chinensis), grade 0-5 [12]
1 | CON=C(C)CC1CC(OC)=C(c2c(C)cc(C)cc2C)C1=O (stereo not drawn) [1-001, 2-mesityl-3-methoxy-5-{2-(methoxyimino)propyl}cyclopent-2-enone] | 0 (Herbicidal ratio of 5% or lower (almost no effect)) | 0 (Herbicidal ratio of 5% or lower (almost no effect)) | 0 (Herbicidal ratio of 5% or lower (almost no effect)) | 0 (Herbicidal ratio of 5% or lower (almost no effect)) | 0 (Herbicidal ratio of 5% or lower (almost no effect)) | 0 (Herbicidal ratio of 5% or lower (almost no effect)) | 0 (Herbicidal ratio of 5% or lower (almost no effect)) | 0 (Herbicidal ratio of 5% or lower (almost no effect)) | 0 (Herbicidal ratio of 5% or lower (almost no effect)) | 0 (Herbicidal ratio of 5% or lower (almost no effect)) | 0 (Herbicidal ratio of 5% or lower (almost no effect)) | 0 (Herbicidal ratio of 5% or lower (almost no effect))
2 | CON=C(C)CC1CC(O)=C(c2c(C)cc(C)cc2C)C1=O (stereo not drawn) [1-002, 3-hydroxy-2-mesityl-5-{2-(methoxyimino)propyl}cyclopent-2-enone] | 5 (Herbicidal ratio of 90% or more (almost completely withered)) | 3 (Herbicidal ratio of 40% or higher and lower than 70%) | 3 (Herbicidal ratio of 40% or higher and lower than 70%) | 5 (Herbicidal ratio of 90% or more (almost completely withered)) | 3 (Herbicidal ratio of 40% or higher and lower than 70%) | 5 (Herbicidal ratio of 90% or more (almost completely withered)) | 3 (Herbicidal ratio of 40% or higher and lower than 70%) | 5 (Herbicidal ratio of 90% or more (almost completely withered)) | 5 (Herbicidal ratio of 90% or more (almost completely withered)) | 5 (Herbicidal ratio of 90% or more (almost completely withered)) | 5 (Herbicidal ratio of 90% or more (almost completely withered)) | 5 (Herbicidal ratio of 90% or more (almost completely withered))
3 | CCCCCCCCC(=O)OC1=C(c2c(C)cc(C)cc2C)C(=O)C(CC(C)=NOC)C1 (stereo not drawn) [1-033] | 5 (Herbicidal ratio of 90% or more (almost completely withered)) | 2 (Herbicidal ratio of 20% or higher and lower than 40%) | 1 (Herbicidal ratio of 5% or higher and lower than 20%) | 4 (Herbicidal ratio of 70% or higher and lower than 90%) | 5 (Herbicidal ratio of 90% or more (almost completely withered)) | 5 (Herbicidal ratio of 90% or more (almost completely withered)) | 4 (Herbicidal ratio of 70% or higher and lower than 90%) | 1 (Herbicidal ratio of 5% or higher and lower than 20%) | 3 (Herbicidal ratio of 40% or higher and lower than 70%) | 5 (Herbicidal ratio of 90% or more (almost completely withered)) | 5 (Herbicidal ratio of 90% or more (almost completely withered)) | 5 (Herbicidal ratio of 90% or more (almost completely withered))
4 | CCC(CC1CC(O)=C(c2c(C)cc(C)cc2C)C1=O)=NOC (stereo not drawn) [1-038] | 5 (Herbicidal ratio of 90% or more (almost completely withered)) | 4 (Herbicidal ratio of 70% or higher and lower than 90%) | 0 (Herbicidal ratio of 5% or lower (almost no effect)) | 4 (Herbicidal ratio of 70% or higher and lower than 90%) | 5 (Herbicidal ratio of 90% or more (almost completely withered)) | 5 (Herbicidal ratio of 90% or more (almost completely withered)) | 5 (Herbicidal ratio of 90% or more (almost completely withered)) | 0 (Herbicidal ratio of 5% or lower (almost no effect)) | 1 (Herbicidal ratio of 5% or higher and lower than 20%) | 5 (Herbicidal ratio of 90% or more (almost completely withered)) | 5 (Herbicidal ratio of 90% or more (almost completely withered)) | 5 (Herbicidal ratio of 90% or more (almost completely withered))
5 | CON=C(CC1CC(O)=C(c2c(C)cc(C)cc2C)C1=O)c1ccccc1 (stereo not drawn) [1-047] | 3 (Herbicidal ratio of 40% or higher and lower than 70%) | 0 (Herbicidal ratio of 5% or lower (almost no effect)) | 0 (Herbicidal ratio of 5% or lower (almost no effect)) | 3 (Herbicidal ratio of 40% or higher and lower than 70%) | 0 (Herbicidal ratio of 5% or lower (almost no effect)) | 1 (Herbicidal ratio of 5% or higher and lower than 20%) | 0 (Herbicidal ratio of 5% or lower (almost no effect)) | 0 (Herbicidal ratio of 5% or lower (almost no effect)) | 0 (Herbicidal ratio of 5% or lower (almost no effect)) | 0 (Herbicidal ratio of 5% or lower (almost no effect)) | 4 (Herbicidal ratio of 70% or higher and lower than 90%) | 3 (Herbicidal ratio of 40% or higher and lower than 70%)
6 | CON=C(CC1CC(O)=C(c2c(C)cc(C)cc2C)C1=O)C(C)C (stereo not drawn) [1-048] | 5 (Herbicidal ratio of 90% or more (almost completely withered)) | 2 (Herbicidal ratio of 20% or higher and lower than 40%) | 0 (Herbicidal ratio of 5% or lower (almost no effect)) | 3 (Herbicidal ratio of 40% or higher and lower than 70%) | 5 (Herbicidal ratio of 90% or more (almost completely withered)) | 4 (Herbicidal ratio of 70% or higher and lower than 90%) | 4 (Herbicidal ratio of 70% or higher and lower than 90%) | 0 (Herbicidal ratio of 5% or lower (almost no effect)) | 1 (Herbicidal ratio of 5% or higher and lower than 20%) | 4 (Herbicidal ratio of 70% or higher and lower than 90%) | 5 (Herbicidal ratio of 90% or more (almost completely withered)) | 4 (Herbicidal ratio of 70% or higher and lower than 90%)
